Laboratory results from patent publication US9365541B2, “Compounds for use in the treatment of parasitic diseases” (IRBM—SCIENCE PARK S.P.A., priority 2012, dated 2016).

Tests used:
human HDAC1 = molecular target: T1, human HDAC1 (Homo sapiens, UniProt Q13547); assay: Homo sapiens HDAC1 inhibition assay (Fluor-de-Lys, enzymatic); format: biochemical; details: human HDAC enzymatic assay; read-out: hHDAC IC50
T1 construct: made in house; host or cells: HeLa (ATCC CCL-2), mammalian cells
Experimental: Biology Homo sapiens HDAC1 Inhibition Assay Overview:
The aim of the assay is to evaluate the inhibition of the deacetylase activity of human HDAC1. To such goal an acetylated substrate is added to the enzyme mix; the resulting enzymatic product is converted to a fluorescent molecule by the addition the enzyme trypsine (developer solution). Fluorescence intensity is inversely proportional to the rate of inhibition of the enzyme (as indicated in the material section below).
Reagents of the HDAC Fluorescent Activity Assay are purchased from Enzo Life Sciences (http://www.enzolifesciences.com/BML-AK500/fluor-de-lys-hdac-fluorometric-activity-assay-kit/) and feature the Fluor-de-Lys™ Substrate/Developer System.
c) Trichostatin A (TSA) Stock
TSA (Sigma-Aldrich, T8552) is provided as a 10 mM stock solution in 100% dimethylsulfoxide (DMSO).
Diluted Substrate Solution
The final concentration in the assay is 20 μM.
Diluted Developer Solution
2 μM [final] TSA to this solution increases its ability to stop the reaction.
The HDAC1 enzyme is diluted in assay buffer prior to each use from a fresh aliquot of enzyme.
The final concentration in the assay is 1-2 nM.
Test compounds should be prepared in 100% DMSO and transferred to the assay by a nano volume dispenser to reach the appropriate concentration and the appropriate DMSO concentration (0.25%) in the reaction.

[1] = test system: Plasmodium falciparum 3D7; assay: P. falciparum growth inhibition assay (Pf-LDH); format: cell-based; details: Plasmodium falciparum, Erythrocyte; P. falciparum 3D7 infected erythrocytes, 72 h incubation, PfLDH readout
Experimental: Basic culture of Plasmodium falciparum 3D7 parasites (Malaria Research and Reference Reagent Resource Center (MR4), MR4 Number: MRA-102).
Starting with a culture with a parasitemia of about 10% (and 5% hematocrit), 0.5 ml of the culture is placed in a fresh 100 mm petri dish with 0.95 ml of fresh erythrocytes (50% hematocrit) and 8.55 ml of culture medium, giving a new starting parasitemia of 0.5%. The petri dish is then incubated at 37° C. in a humidified gas-tight plastic box flushed with a gas mixture consisting of 93% N2, 4% CO2, and 3% O2. The culture medium is changed daily. The supernatant is removed by gently tipping the dish without disturbing the settled cells and aspirating the medium with a Pasteur pipette connected to a vacuum pump. A small amount of the concentrated cells is taken to prepare a blood smear for determination of the parasitemia. Normally, the cultures are split twice a week. If the parasites are growing very slowly then fresh erythrocytes are added to the culture no later than after 7 days. The cultures are then split 1:2 if the parasitemia is lower than 0.5%. To avoid the necessity of daily medium change on weekends, a culture with a 2.5% hematocrit and 0.1-0.2% parasitemia is set up and can be left for 3 days without medium change.
Standard medium consists of RPMI 1640, supplemented with 25 mM HEPES, 24 mM NaHCO3, 0.36 mM hypoxanthine, 100 μg/ml Neomycin, 5 g/1 Albumax® II, and washed human red blood cells (rbcs) A+.
P. falciparum Growth Inhibition Assay (Pf-LDH)
Compounds of the invention were assessed for in vitro antimalarial activity against a cloroquine sensitive (3D7) strain of the malaria parasite Plasmodium falciparum, using a lactate dehydrogenase (PfLDH) assay.
EC50 Determination by Pf-LDH Assay
384 plates (where compounds to be tested are dispensed) with 25 μl of parasite inoculum (parasitemia: 0.25%, hematocrit: 2%) are incubated at 37° C. in an atmosphere of 4% CO2, 3% O2, 93% N2. After 72 h of incubation, plates are frozen at −70° C. overnight and thawed at room temperature for at least 4 h. To evaluate PfLDH activity, 70 μl of freshly made reaction mix (143 mM sodium L-lactate, 143 μM 3-acetyl pyridine adenine dinucleotide (APAD), 178.75 μM Nitro Blue tetrazolium chloride (NBT), 286 μg/ml diaphorase (2.83 U/ml), 0.7% Tween 20, 100 mM Tris-HCl pH 8.0) is dispensed using a Multidrop Combi dispenser. Plates are shaken to ensure mixing and absorbance at 650 nm is monitored in a plate reader after 10 min of incubation at room temperature.
Negative controls (0% Effect) are produced by addition of DMSO to the proper wells.
Positive controls (100% Effect) are produced by addition of 150 nM Artemisinin (Sigma-Aldrich, 361593)
After result normalization using positive and negative controls, compound potency is determined by fitting the following equation: % inh=Ymin+(Ymax−Ymin)/(1+(X/EC50)^slope)) Where: • Ymin=minimum percentage effect • Ymax=maximum percentage effect • EC50=the concentration of the compound at which 50% effect is reached • Slope=the slope of the curve calculated at the EC50 Histone Hyperacetylation and Immunodetection of Altered Histone Modifications Assay

T1 sequence (Q13547 whole entry): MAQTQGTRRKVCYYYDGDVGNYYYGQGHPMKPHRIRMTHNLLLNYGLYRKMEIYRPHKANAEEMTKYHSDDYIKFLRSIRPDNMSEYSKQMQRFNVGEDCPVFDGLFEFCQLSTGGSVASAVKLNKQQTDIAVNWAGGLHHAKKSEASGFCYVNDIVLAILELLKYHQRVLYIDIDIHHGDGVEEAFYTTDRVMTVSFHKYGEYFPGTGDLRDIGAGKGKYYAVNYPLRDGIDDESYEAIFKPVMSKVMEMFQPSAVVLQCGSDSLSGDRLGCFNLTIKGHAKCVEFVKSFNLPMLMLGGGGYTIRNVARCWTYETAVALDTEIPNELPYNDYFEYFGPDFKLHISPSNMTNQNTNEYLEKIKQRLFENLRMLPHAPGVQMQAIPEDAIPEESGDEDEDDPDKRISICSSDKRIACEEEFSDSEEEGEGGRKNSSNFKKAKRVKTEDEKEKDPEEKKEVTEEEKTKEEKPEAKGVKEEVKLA

Compound | IC50 (human HDAC1) [µM] | EC50 [1] [µM]
CNC(=O)CCCCC[C@H](NC(=O)c1cnsn1)c1ncc(-c2ccc3ccccc3c2)[nH]1 [Entry 45, (S)-N-(7-(methylamino)-1-(5-(naphthalen-2-yl)-1H-imidazol-2-yl)-7-oxoheptyl)-1,2,5-thiadiazole-3-carboxamide] | 1 to 5 | > 5
CNC(=O)CCCCC[C@H](NC(=O)c1cscn1)c1ncc(-c2ccc3ccncc3c2)[nH]1 [Entry 47, (S)-N-(1-(5-(isoquinolin-7-yl)-1H-imidazol-2-yl)-7-(methylamino)-7-oxoheptyl)thiazole-4-carboxamide] | > 5 | 1 to 5
CNC(=O)CCCCC[C@H](NC(=O)C1CC1c1ccncc1)c1ncc(-c2ccc3ccncc3c2)[nH]1 (stereo partly drawn) [Entry 48, N-((S)-1-(5-(isoquinolin-7-yl)-1H-imidazol-2-yl)-7-(methylamino)-7-oxoheptyl)-2-(pyridin-4-yl)cyclopropane-carboxamide] | 1 to 5 | 1 to 5
CNC(=O)CCCCC[C@H](NC(=O)c1cnn(C(C)C)c1)c1ncc(-c2ccc(-c3ccn(C)n3)cc2)[nH]1 [Entry 50, (S)-1-isopropyl-N-(1-(5-(4-(1-methyl-1H-pyrazol-3-yl)phenyl)-1H-imidazol-2-yl)-7-(methylamino)-7-oxoheptyl)-1H-pyrazole-4-carboxamide] | 1 to 5 | < 1
CNC(=O)CCCCC[C@H](NC(=O)c1cncs1)c1ncc(-c2cc3ccccc3s2)[nH]1 [Entry 51, (S)-N-(1-(5-(benzo[b]thiophen-2-yl)-1H-imidazol-2-yl)-7-(methylamino)-7-oxoheptyl)thiazole-5-carboxamide] | 1 to 5 | 1 to 5
CNC(=O)CCCCC[C@H](NC(=O)c1cncs1)c1ncc(-c2ccc(C#N)cc2)[nH]1 [Entry 52, (S)-N-(1-(5-(4-cyanophenyl)-1H-imidazol-2-yl)-7-(methylamino)-7-oxoheptyl)thiazole-5-carboxamide] | 1 to 5 | > 5
CNC(=O)CCCCC[C@H](NC(=O)c1cncs1)c1ncc(-c2ccc(NC(C)=O)cc2)[nH]1 [Entry 53, (S)-N-(1-(5-(4-acetamidophenyl)-1H-imidazol-2-yl)-7-(methylamino)-7-oxoheptyl)thiazole-5-carboxamide] | 1 to 5 | 1 to 5
CNC(=O)CCCCC[C@H](NC(=O)c1cncs1)c1ncc(-c2cc3cc(OC)ccc3[nH]2)[nH]1 [Entry 54, (S)-N-(1-(5-(5-methoxy-1H-indol-2-yl)-1H-imidazol-2-yl)-7-(methylamino)-7-oxoheptyl)thiazole-5-carboxamide] | 1 to 5 | 1 to 5
COc1nc2ccccc2cc1-c1cnc([C@H](CCCCCC(N)=O)OC(=O)C23CCN(CC2)CC3)o1 [Entry 55] | < 1 | 1 to 5
CNC(=O)CCCCC[C@H](OC(=O)C12CCN(CC1)CC2)c1ncc(-c2cc3ccccc3nc2OC)o1 [Entry 56] | < 1 | 1 to 5
CNC(=O)CCCCC[C@H](NC(=O)c1cncs1)c1ncc(-c2ccc(Cl)cc2OC)[nH]1 [Entry 57, (S)-N-(1-(5-(4-chloro-2-methoxyphenyl)-1H-imidazol-2-yl)-7-(methylamino)-7-oxoheptyl)thiazole-5-carboxamide] | 1 to 5 | 1 to 5

Second part, the compound after the results:

IC50 (human HDAC1) [µM] | EC50 [1] [µM] | Compound
1 to 5 | < 1 | CNC(=O)CCCCC[C@H](NC(=O)c1cncs1)c1ncc(-c2cnc3ccccc3c2)[nH]1 [Entry 36, (S)-N-(7-(methylamino)-7-oxo-1-(5-(quinolin-3-yl)-1H-imidazol-2-yl)heptyl)thiazole-5-carboxamide]
< 1 | 1 to 5 | CNC(=O)CCCCC[C@H](NC(=O)OCc1ccccc1)c1ncc(-c2ccc(-c3cc[nH]n3)cc2)[nH]1 [Entry 37, (S)-benzyl(1-(5-(4-(1H-pyrazol-3-yl)phenyl)-1H-imidazol-2-yl)-7-(methylamino)-7-oxoheptyl)carbamate]
1 to 5 | 1 to 5 | CNC(=O)CCCCC[C@H](NC(=O)CCc1c(C)nc2ncnn2c1C)c1ncc(-c2ccc(-n3cccn3)cc2)[nH]1 [Entry 38, (S)-7-(5-(4-(1H-pyrazol-1-yl)phenyl)-1H-imidazol-2-yl)-7-(3-(5,7-dimethyl-[1,2,4]triazolo[1,5-a]pyrimidin-6-yl)propanamido)-N-methylheptanamide]
1 to 5 | 1 to 5 | CNC(=O)CCCCC[C@H](NC(=O)CC1=CSC2=NCCCN12)c1ncc(-c2ccc(-n3cccn3)cc2)[nH]1 [Entry 39, (S)-7-(5-(4-(1H-pyrazol-1-yl)phenyl)-1H-imidazol-2-yl)-7-(2-(6,7-dihydro-5H-thiazolo[3,2-a]pyrimidin-3-yl)acetamido)-N-methylheptanamide]
1 to 5 | 1 to 5 | CNC(=O)CCCCC[C@H](NC(=O)C1(C)CCOCC1)c1ncc(-c2ccc3ccccc3c2)[nH]1 [Entry 40]
1 to 5 | < 1 | CNC(=O)CCCCC[C@H](NC(=O)c1ccc(N2CC(=O)NC2=O)cc1)c1ncc(-c2ccc3ccccc3c2)[nH]1 [Entry 41, (S)-4-(2,4-dioxoimidazolidin-1-yl)-N-(7-(methylamino)-1-(5-(naphthalen-2-yl)-1H-imidazol-2-yl)-7-oxo-heptyl)benzamide]
1 to 5 | 1 to 5 | CNC(=O)CCCCC[C@H](NC(=O)c1cccc(-n2nc(C)cc2C)c1)c1ncc(-c2ccc3ccccc3c2)[nH]1 [Entry 42, (S)-3-(3,5-dimethyl-1H-pyrazol-1-yl)-N-(7-(methylamino)-1-(5-(naphthalen-2-yl)-1H-imidazol-2-yl)-7-oxo-heptyl)benzamide]
1 to 5 | > 5 | CNC(=O)CCCCC[C@H](NC(=O)c1nc2ncccn2n1)c1ncc(-c2ccc3ccccc3c2)[nH]1 [Entry 43, (S)-N-(7-(methylamino)-1-(5-(naphthalen-2-yl)-1H-imidazol-2-yl)-7-oxoheptyl)-[1,2,4]triazolo[1,5-a]pyrimidine-2-carboxamide]
< 1 | 1 to 5 | CNC(=O)CCCCC[C@H](NC(=O)Cn1cnc2ccccc21)c1ncc(-c2ccc3ccccc3c2)[nH]1 [Entry 44, (S)-7-(2-(1H-benzo[d]imidazol-1-yl)acetamido)-N-methyl-7-(5-(naphthalen-2-yl)-1H-imidazol-2-yl)heptanamide]
< 1 | < 1 | CNC(=O)CCCCC[C@H](NC(=O)c1cnsc1)c1ncc(-c2ccc3ccncc3c2)[nH]1 [Entry 46, (S)-N-(1-(5-(isoquinolin-7-yl)-1H-imidazol-2-yl)-7-(methylamino)-7-oxo-heptyl)isothiazole-4-carboxamide]
< 1 | < 1 | CNC(=O)CCCCC[C@H](NC(=O)c1cnc(C)s1)c1ncc(-c2ccc3ccncc3c2)[nH]1 [Entry 49, (S)-N-(1-(5-(isoquinolin-7-yl)-1H-imidazol-2-yl)-7-(methylamino)-7-oxoheptyl)-2-methylthiazole-5-carboxamide]
